According to ChEMBL document CHEMBL4130363, “Synthesis and pharmacological evaluation of benzamide derivatives as potent and selective sigma-1 protein ligands” (Eur J Med Chem, 2017):

Experiments:
[1] = biological target: Histamine H1 receptor (Homo sapiens) (UniProt P35367); experiment: Antagonist activity at recombinant human histamine H1 receptor assessed as inhibition of agonist-induced effect at 10 uM by aequorin reporter based assay; format: functional
[2] = biological target: Kappa-type opioid receptor (Homo sapiens) (UniProt P41145); experiment: Antagonist activity at human kappa-type opioid receptor assessed as inhibition of agonist-induced effect at 10 uM by GTPgamma[35S] binding-based assay; format: functional
[3] = biological target: T1, 5-hydroxytryptamine receptor 1A (Homo sapiens) (UniProt P08908); experiment: Antagonist activity at recombinant human 5-HT1A assessed as inhibition of agonist-induced cAMP levels at 10 uM by HTRF assay; format: functional
T1 sequence (whole entry): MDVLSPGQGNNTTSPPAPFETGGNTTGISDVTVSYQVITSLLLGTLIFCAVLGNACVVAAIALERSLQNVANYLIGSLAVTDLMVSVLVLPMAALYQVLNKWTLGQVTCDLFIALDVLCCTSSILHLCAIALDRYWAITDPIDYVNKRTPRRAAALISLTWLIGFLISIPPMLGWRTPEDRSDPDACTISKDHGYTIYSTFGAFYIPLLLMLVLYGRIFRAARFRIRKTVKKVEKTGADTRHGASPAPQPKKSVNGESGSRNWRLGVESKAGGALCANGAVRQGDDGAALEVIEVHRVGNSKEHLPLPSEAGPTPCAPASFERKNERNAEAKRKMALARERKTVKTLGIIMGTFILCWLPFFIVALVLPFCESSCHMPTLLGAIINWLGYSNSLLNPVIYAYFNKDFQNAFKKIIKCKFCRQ

[4] = biological target: 5-hydroxytryptamine receptor 6 (Homo sapiens) (UniProt P50406); experiment: Antagonist activity at recombinant human 5-HT6R assessed as inhibition of agonist-induced cAMP induction at 10 uM by HTRF assay; format: functional
[5] = biological target: T2, Endothelin-1 receptor (Homo sapiens) (UniProt P25101); experiment: Agonist activity at recombinant human ETA receptor at 10 uM by aequorin reporter based assay relative to agonist; format: functional
T2 sequence (whole entry): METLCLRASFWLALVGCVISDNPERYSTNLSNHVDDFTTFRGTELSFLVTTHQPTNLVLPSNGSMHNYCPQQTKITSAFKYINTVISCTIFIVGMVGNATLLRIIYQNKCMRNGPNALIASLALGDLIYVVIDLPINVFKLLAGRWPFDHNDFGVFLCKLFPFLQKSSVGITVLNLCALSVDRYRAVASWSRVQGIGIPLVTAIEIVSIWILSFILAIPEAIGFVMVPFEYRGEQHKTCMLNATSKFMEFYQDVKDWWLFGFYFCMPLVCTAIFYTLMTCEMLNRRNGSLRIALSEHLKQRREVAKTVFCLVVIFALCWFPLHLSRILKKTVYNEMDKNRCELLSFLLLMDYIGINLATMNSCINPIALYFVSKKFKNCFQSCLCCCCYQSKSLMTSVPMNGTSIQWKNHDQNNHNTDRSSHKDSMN

[6] = biological target: T3, Muscarinic acetylcholine receptor M2 (Homo sapiens) (UniProt P08172); experiment: Agonist activity at recombinant human muscarinic M2 receptor at 10 uM by GTPgamma[35S] binding-based assay relative to agonist; format: functional
T3 sequence (whole entry): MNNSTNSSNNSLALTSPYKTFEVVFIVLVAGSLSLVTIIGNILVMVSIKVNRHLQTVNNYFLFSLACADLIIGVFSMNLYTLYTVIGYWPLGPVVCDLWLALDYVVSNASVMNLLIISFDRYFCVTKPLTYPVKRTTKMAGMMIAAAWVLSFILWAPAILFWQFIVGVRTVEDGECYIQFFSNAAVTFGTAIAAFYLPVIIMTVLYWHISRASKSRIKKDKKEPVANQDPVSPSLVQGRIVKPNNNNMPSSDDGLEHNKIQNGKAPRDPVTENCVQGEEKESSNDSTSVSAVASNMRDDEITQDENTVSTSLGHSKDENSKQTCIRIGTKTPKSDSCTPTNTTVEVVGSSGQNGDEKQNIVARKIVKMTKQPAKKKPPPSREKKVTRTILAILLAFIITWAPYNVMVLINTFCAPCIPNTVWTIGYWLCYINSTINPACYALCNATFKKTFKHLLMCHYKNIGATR

[7] = biological target: T4, Adenosine receptor A1 (Homo sapiens) (UniProt P30542); experiment: Agonist activity at recombinant human adenosine A1 receptor […] at 10 uM by HTRF assay relative to agonist; format: functional
T4 sequence (whole entry): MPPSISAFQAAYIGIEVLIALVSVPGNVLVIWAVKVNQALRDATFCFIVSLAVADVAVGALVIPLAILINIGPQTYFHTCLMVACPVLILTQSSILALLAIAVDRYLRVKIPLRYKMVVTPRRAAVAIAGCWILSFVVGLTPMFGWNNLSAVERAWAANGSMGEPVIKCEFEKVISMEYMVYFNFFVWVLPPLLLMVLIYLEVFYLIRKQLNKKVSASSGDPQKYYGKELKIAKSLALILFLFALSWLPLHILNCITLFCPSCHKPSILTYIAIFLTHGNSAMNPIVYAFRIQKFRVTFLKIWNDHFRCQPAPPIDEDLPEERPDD

[8] = biological target: 5-hydroxytryptamine receptor 4 (Homo sapiens) (UniProt Q13639); experiment: Agonist activity at recombinant human 5-HT4E assessed as induction of cAMP levels at 10 uM by HTRF assay relative to agonist; format: functional
[9] = biological target: D(2) dopamine receptor (Homo sapiens) (UniProt P14416); experiment: Agonist activity at recombinant human dopamine D2L receptor at 10 uM by GTPgamma[35S] binding-based assay relative to agonist
[10] = biological target: T5, Alpha-2A adrenergic receptor (Homo sapiens) (UniProt P08913); experiment: Antagonist activity at recombinant human alpha-2a adrenergic receptor assessed as inhibition of agonist-induced effect at 10 uM by GTPgamma[35S] binding-based assay; format: functional
T5 sequence (whole entry): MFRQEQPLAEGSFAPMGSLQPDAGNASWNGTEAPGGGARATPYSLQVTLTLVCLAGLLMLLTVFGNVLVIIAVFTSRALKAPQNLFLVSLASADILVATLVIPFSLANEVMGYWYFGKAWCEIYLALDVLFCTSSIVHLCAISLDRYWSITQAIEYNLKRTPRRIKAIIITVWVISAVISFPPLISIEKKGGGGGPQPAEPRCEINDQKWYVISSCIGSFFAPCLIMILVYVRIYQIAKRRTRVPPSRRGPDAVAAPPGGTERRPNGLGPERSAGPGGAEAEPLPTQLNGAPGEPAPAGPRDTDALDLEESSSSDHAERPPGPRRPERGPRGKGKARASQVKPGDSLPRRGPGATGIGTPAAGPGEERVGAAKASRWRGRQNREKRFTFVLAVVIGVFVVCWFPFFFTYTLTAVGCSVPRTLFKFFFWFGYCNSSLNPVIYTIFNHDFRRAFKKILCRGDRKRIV

Sequence of Kappa-type opioid receptor (Homo sapiens) (P41145 whole entry): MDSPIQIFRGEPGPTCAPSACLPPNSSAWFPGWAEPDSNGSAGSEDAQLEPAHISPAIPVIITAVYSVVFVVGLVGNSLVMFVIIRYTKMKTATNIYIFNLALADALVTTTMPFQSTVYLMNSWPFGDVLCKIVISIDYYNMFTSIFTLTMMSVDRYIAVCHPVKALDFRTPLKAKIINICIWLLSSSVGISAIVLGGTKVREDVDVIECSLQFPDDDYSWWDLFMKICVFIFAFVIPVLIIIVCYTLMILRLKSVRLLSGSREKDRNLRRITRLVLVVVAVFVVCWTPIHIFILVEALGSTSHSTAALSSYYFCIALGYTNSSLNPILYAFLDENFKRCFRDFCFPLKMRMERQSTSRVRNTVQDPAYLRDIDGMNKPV
Sequence of 5-hydroxytryptamine receptor 6 (Homo sapiens) (P50406 whole entry): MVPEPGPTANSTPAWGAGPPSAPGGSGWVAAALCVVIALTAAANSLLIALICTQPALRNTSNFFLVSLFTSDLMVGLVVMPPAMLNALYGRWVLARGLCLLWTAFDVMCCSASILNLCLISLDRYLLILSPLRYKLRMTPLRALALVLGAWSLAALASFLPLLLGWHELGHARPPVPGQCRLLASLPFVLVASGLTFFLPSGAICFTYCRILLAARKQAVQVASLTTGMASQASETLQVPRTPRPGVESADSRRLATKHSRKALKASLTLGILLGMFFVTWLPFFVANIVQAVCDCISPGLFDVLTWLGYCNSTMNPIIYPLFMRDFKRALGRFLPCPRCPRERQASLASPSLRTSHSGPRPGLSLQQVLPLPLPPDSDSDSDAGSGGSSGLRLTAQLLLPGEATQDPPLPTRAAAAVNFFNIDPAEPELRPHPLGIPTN
Sequence of 5-hydroxytryptamine receptor 4 (Homo sapiens) (Q13639 whole entry): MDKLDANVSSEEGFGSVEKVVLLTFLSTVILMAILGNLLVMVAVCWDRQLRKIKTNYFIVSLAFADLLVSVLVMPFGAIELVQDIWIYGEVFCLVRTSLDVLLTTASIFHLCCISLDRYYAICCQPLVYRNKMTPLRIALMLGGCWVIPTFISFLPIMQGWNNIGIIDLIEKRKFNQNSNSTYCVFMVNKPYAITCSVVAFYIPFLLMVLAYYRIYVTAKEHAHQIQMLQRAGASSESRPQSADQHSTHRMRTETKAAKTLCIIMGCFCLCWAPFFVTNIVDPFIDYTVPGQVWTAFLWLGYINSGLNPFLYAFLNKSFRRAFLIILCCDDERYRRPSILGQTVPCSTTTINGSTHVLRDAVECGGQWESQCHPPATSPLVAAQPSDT
Sequence of Histamine H1 receptor (Homo sapiens) (P35367 whole entry): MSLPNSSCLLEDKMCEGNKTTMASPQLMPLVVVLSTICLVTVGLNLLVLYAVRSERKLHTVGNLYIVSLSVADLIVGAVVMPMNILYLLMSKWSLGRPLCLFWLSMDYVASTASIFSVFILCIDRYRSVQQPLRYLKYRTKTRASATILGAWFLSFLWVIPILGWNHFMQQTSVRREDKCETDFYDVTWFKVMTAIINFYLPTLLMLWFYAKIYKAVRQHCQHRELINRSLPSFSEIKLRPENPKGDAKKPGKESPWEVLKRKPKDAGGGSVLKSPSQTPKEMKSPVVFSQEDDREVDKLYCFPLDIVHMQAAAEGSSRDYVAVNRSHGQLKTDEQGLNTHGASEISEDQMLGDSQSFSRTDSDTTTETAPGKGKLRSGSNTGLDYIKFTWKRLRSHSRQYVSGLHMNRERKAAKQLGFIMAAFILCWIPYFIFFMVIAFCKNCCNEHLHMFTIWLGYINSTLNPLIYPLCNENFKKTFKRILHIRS
Sequence of D(2) dopamine receptor (Homo sapiens) (P14416 whole entry): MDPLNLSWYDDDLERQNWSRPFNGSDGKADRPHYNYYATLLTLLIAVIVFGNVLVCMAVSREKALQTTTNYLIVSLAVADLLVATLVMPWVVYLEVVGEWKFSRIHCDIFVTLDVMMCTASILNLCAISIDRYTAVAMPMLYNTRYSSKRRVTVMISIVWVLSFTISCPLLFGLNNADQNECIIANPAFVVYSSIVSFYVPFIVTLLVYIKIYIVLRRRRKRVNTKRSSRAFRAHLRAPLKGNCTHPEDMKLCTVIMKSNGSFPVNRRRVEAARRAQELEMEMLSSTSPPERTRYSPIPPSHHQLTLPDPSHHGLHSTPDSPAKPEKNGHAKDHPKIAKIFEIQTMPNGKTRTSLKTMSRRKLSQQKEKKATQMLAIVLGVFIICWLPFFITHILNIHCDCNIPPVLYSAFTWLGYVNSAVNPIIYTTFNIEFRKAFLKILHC

inhibition [1] [%]	inhibition [2] [%]	inhibition [3] [%]	inhibition [4] [%]	Activity [5] [%]	Activity [6] [%]	Activity [7] [%]	Activity [8] [%]	Activity [9] [%]	inhibition [10] [%]	Structure (SMILES)
21	21	-6	-4	-1	-6	-9	-4	20	25	CN(CCCNC(=O)c1ccc([N+](=O)[O-])cc1)Cc1ccccc1
12	23	5	0	0	-3	-3	-13	-14	23	COc1ccc(C(=O)NCCCN(C)Cc2ccccc2)cc1
26	23	20	3	-1	-1	0	-5	-15	32	CN(CCNC(=O)c1ccc([N+](=O)[O-])cc1)Cc1ccccc1
34	24	-1	-6	0	-9	-3	-9	-3	50	CN(CCCNC(=O)c1ccc(Cl)cc1)Cc1ccccc1
57	4	18	-1	0	-1	-6	-12	16	20	COc1cccc(C(=O)NCCCN(C)Cc2ccccc2)c1
90	26	17	3	-1	-10	-13	-3	25	105	CN(CCCNC(=O)c1ccc(Cl)cc1)CCc1ccccc1
35	9	16	-2	-1	-3	1	-7	-23	19	CN(CCNC(=O)c1ccc(C#N)cc1)Cc1ccccc1
28	22	-5	-1	1	-3	-8	-7	-1	42	CN(CCCNC(=O)c1ccc(Br)cc1)Cc1ccccc1
25	26	-6	1	-1	-9	-3	-6	4	37	CCCc1ccc(C(=O)NCCCN(C)Cc2ccccc2)cc1
24	28	1	1	-1	-9	-4	8	25	49	CN(CCCNC(=O)c1ccc(C(F)(F)F)cc1)Cc1ccccc1
32	40	3	-3	-1	-5	-11	-5	-2	45	CN(CCNC(=O)c1ccc(Cl)cc1)Cc1ccccc1
74	26	7	-2	-1	-11	-12	-1	-2	57	CN(CCCNC(=O)c1cccc(Br)c1)Cc1ccccc1
